Results on 42 molecules are retold here after ChEMBL document CHEMBL2429724, “Computational POM evaluation of experimental in vitro Trypanosoma cruzi and Mycobacterium tuberculosis inhibition of heterocyclic-2-carboxylic acid (3-cyano-1,4-di-noxidequinoxalin-2-yl)amide derivatives” (Med Chem Res, 2013).

The test system of assay [1] is Mycobacterium tuberculosis. As to the kind of experiment: Antimicrobial activity against Mycobacterium tuberculosis H37Rv ATCC 27294 by microplate Alamar Blue assay. In kind it is functional. For orientation: Alamar Blue is a resazurin reagent that responds to reducing activity.
Assay [2] relates to Trypanosoma cruzi. As to the kind of experiment: Antimicrobial activity against benznidazole-resistant epimastigotes of Trypanosoma cruzi Tulahuen 2 assessed as growth inhibition at 25 uM measured on day 5 by spectrophotometry. Type of assay: functional. The settings on record: Tulahuen 2, 120 h, read-out: GI.
Assay [3] has as its system Trypanosoma cruzi. As to the kind of experiment: Antimicrobial activity against benznidazole-resistant epimastigotes of Trypanosoma cruzi Tulahuen 2 assessed as growth inhibition measured on day 5 by spectrophotometry. The settings on record: Tulahuen 2, 120 h. Type of assay: functional, organism-based.

In brackets after ≈: the same amount, converted by molar mass.

Molecule `COc1ccc2c(c1)[n+]([O-])c(C#N)c(NC(=O)c1ccc([N+](=O)[O-])s1)[n+]2[O-]` returned an MIC in assay [1] of 9.54 µg/mL (≈ 24.6 µM). In turn, `N#Cc1c(NC(=O)c2ccco2)[n+]([O-])c2cc(C(F)(F)F)ccc2[n+]1[O-]` registered an MIC in assay [1] of 17.9 µg/mL (≈ 49.1 µM). Consider `Cc1cc2c(cc1C)[n+]([O-])c(NC(=O)c1ccc([N+](=O)[O-])o1)c(C#N)[n+]2[O-]`, for which the inhibition of growth at 25 µM with Trypanosoma cruzi [2] was found to be 0%. Regarding `N#Cc1c(NC(=O)c2ccc([N+](=O)[O-])o2)[n+]([O-])c2cc(C(F)(F)F)ccc2[n+]1[O-]`, 12.8 µg/mL (≈ 31.3 µM) was the least that counted as inhibitory in assay [1] (MIC).

As to `Cc1ccc2c(c1)[n+]([O-])c(C#N)c(NC(=O)c1ccc([N+](=O)[O-])s1)[n+]2[O-]`, in the assay with Trypanosoma cruzi [2], the inhibition of growth at 25 µM was determined as 11.4%. Regarding `N#Cc1c(NC(=O)c2ccc([N+](=O)[O-])s2)[n+]([O-])c2ccccc2[n+]1[O-]`, in the assay with Trypanosoma cruzi [2], the inhibition of growth at 25 µM is 0%. The MIC in assay [1] was determined as 2.88 µg/mL (≈ 8.06 µM).

On to `N#Cc1c(NC(=O)c2cccs2)[n+]([O-])c2ccccc2[n+]1[O-]`, for which the inhibition of growth at 25 µM in the assay on Trypanosoma cruzi [2] was determined as 19%. The molecule also registered a minimal inhibitory concentration (MIC) in assay [1] of 5.38 µg/mL (≈ 17.2 µM). On to `N#Cc1c(NC(=O)c2ccc([N+](=O)[O-])s2)[n+]([O-])c2cc(F)c(F)cc2[n+]1[O-]`, for which the inhibition of growth at 25 µM in the assay on Trypanosoma cruzi [2] turned out to be 9.2%. For the molecule `Cc1ccc2c(c1)[n+]([O-])c(C#N)c(NC(=O)c1cccs1)[n+]2[O-]`, the inhibition of growth at 25 µM in the assay on Trypanosoma cruzi [2] stood at 16.4%. The molecule also registered an MIC in assay [1] of 2.08 µg/mL (≈ 6.37 µM). Consider `N#Cc1c(NC(=O)c2cccs2)[n+]([O-])c2ccc(C(F)(F)F)cc2[n+]1[O-]`, for which the MIC in assay [1] worked out at 9.18 µg/mL (≈ 24.1 µM). Take `N#Cc1c(NC(=O)c2cccs2)[n+]([O-])c2cc(F)c(F)cc2[n+]1[O-]`: the inhibition of growth at 25 µM in the assay on Trypanosoma cruzi [2] is 92%. Still for that read-out and setting: then `Cc1cc2c(cc1C)[n+]([O-])c(NC(=O)c1ccco1)c(C#N)[n+]2[O-]`, with 13.1%. Same read-out and setting: then `N#Cc1c(NC(=O)c2ccco2)[n+]([O-])c2cc(Cl)c(Cl)cc2[n+]1[O-]`, with 31.6%. In assay [1], `N#Cc1c(NC(=O)c2ccc([N+](=O)[O-])o2)[n+]([O-])c2ccc(C(F)(F)F)cc2[n+]1[O-]` gave a minimal inhibitory concentration (MIC) of 14.4 µg/mL (≈ 35.2 µM). On the same count and under the same terms, as for `N#Cc1c(NC(=O)c2ccc([N+](=O)[O-])o2)[n+]([O-])c2ccc(F)cc2[n+]1[O-]`, the figure is 21.7 µg/mL (≈ 60.4 µM); as for `N#Cc1c(NC(=O)c2ccco2)[n+]([O-])c2ccc(C(F)(F)F)cc2[n+]1[O-]`, 24.2 µg/mL (≈ 66.5 µM). `N#Cc1c(NC(=O)c2ccc([N+](=O)[O-])s2)[n+]([O-])c2ccc(Cl)cc2[n+]1[O-]`: in the assay with Trypanosoma cruzi [2], the inhibition of growth at 25 µM is 15%. As to `Cc1ccc2c(c1)[n+]([O-])c(C#N)c(NC(=O)c1ccco1)[n+]2[O-]`, the inhibition of growth at 25 µM in the assay with Trypanosoma cruzi [2] came to 11.6%. Also, the lowest concentration to inhibit growth in assay [1] (MIC) was 8.84 µg/mL (≈ 28.5 µM). For the molecule `N#Cc1c(NC(=O)c2cccs2)[n+]([O-])c2cc(Cl)c(Cl)cc2[n+]1[O-]`, it took 13.6 µg/mL (≈ 35.7 µM) to inhibit growth in assay [1] (MIC). The same measure, in the same setting: then `CO[C@H]1/C=C/O[C@@]2(C)Oc3c(C)c(O)c4c(O)c(c(/C=N/N5CCN(C)CC5)c(O)c4c3C2=O)NC(=O)/C(C)=C\C=C\[C@H](C)[C@H](O)[C@@H](C)[C@@H](O)[C@@H](C)[C@H](OC(C)=O)[C@@H]1C` [RIFAMPIN], with 0.125 µg/mL (≈ 0.152 µM). In the case of `N#Cc1c(NC(=O)c2cccs2)[n+]([O-])c2ccc(F)cc2[n+]1[O-]`, the inhibition of growth at 25 µM with Trypanosoma cruzi [2] was 27.5%. Besides, in assay [1], 1.47 µg/mL (≈ 4.45 µM) was the least that counted as inhibitory (MIC). With `N#Cc1c(NC(=O)c2ccc([N+](=O)[O-])s2)[n+]([O-])c2ccc(F)cc2[n+]1[O-]`, the inhibition of growth at 25 µM with Trypanosoma cruzi [2] was determined as 2.5%. On the same count and under the same terms, as for `N#Cc1c(NC(=O)c2ccc([N+](=O)[O-])s2)[n+]([O-])c2cc(Cl)c(Cl)cc2[n+]1[O-]`, the figure is 29.8%. Take `N#Cc1c(NC(=O)c2ccc([N+](=O)[O-])s2)[n+]([O-])c2ccc(C(F)(F)F)cc2[n+]1[O-]`: the MIC in assay [1] was determined as 6 µg/mL (≈ 14.1 µM). The molecule `N#Cc1c(NC(=O)c2ccc([N+](=O)[O-])o2)[n+]([O-])c2ccc(Cl)cc2[n+]1[O-]` had an MIC in assay [1] of 5.81 µg/mL (≈ 15.5 µM). Turning to `Cc1cc2c(cc1C)[n+]([O-])c(NC(=O)c1ccc([N+](=O)[O-])s1)c(C#N)[n+]2[O-]`, in the assay with Trypanosoma cruzi [2], the inhibition of growth at 25 µM amounted to 36.4%. For `CC1CS(=O)(=O)CCN1/N=C/c1ccc([N+](=O)[O-])o1` (configuration not stated) [NIFURTIMOX], the inhibition of growth at 25 µM with Trypanosoma cruzi [2] amounted to 100%. In addition, the MIC in the assay on Trypanosoma cruzi [3] is 7.7 µM (≈ 2.21 µg/mL). `N#Cc1c(NC(=O)c2ccc([N+](=O)[O-])o2)[n+]([O-])c2ccccc2[n+]1[O-]`: the inhibition of growth at 25 µM with Trypanosoma cruzi [2] came out at 0.7%. `N#Cc1c(NC(=O)c2ccco2)[n+]([O-])c2ccccc2[n+]1[O-]`: the inhibition of growth at 25 µM in the assay on Trypanosoma cruzi [2] worked out at 3.1%. Further, in assay [1], the MIC was found to be 0.977 µg/mL (≈ 3.3 µM).

As to `N#Cc1c(NC(=O)c2ccco2)[n+]([O-])c2cc(F)c(F)cc2[n+]1[O-]`, the inhibition of growth at 25 µM in the assay on Trypanosoma cruzi [2] was 53%. This molecule had an MIC in assay [1] of 4.7 µg/mL (≈ 14.1 µM). `N#Cc1c(NC(=O)c2ccc([N+](=O)[O-])o2)[n+]([O-])c2cc(Cl)c(Cl)cc2[n+]1[O-]` yielded an MIC in assay [1] of 13.6 µg/mL (≈ 33.1 µM).

With `COc1ccc2c(c1)[n+]([O-])c(C#N)c(NC(=O)c1ccc([N+](=O)[O-])o1)[n+]2[O-]`, in assay [1], the MIC was found to be 14.5 µg/mL (≈ 39 µM). With `COc1ccc2c(c1)[n+]([O-])c(C#N)c(NC(=O)c1ccco1)[n+]2[O-]`, the inhibition of growth at 25 µM in the assay on Trypanosoma cruzi [2] came to 9.5%. The same measure, in the same setting: then `Cc1ccc2c(c1)[n+]([O-])c(C#N)c(NC(=O)c1ccc([N+](=O)[O-])o1)[n+]2[O-]`, with 0%. Consider `COc1ccc2c(c1)[n+]([O-])c(C#N)c(NC(=O)c1cccs1)[n+]2[O-]`, for which, in the assay on Trypanosoma cruzi [2], the inhibition of growth at 25 µM turned out to be 15.1%. Moreover, in assay [1], the MIC is 48.9 µg/mL (≈ 143 µM).

`N#Cc1c(NC(=O)c2ccco2)[n+]([O-])c2ccc(Cl)cc2[n+]1[O-]` displayed an MIC in assay [1] of 15.4 µg/mL (≈ 46.4 µM).

`N#Cc1c(NC(=O)c2cccs2)[n+]([O-])c2cc(F)ccc2[n+]1[O-]` came in with an MIC in assay [1] of 4.58 µg/mL (≈ 13.9 µM). For the molecule `N#Cc1c(NC(=O)c2ccco2)[n+]([O-])c2ccc(F)cc2[n+]1[O-]`, the inhibition of growth at 25 µM with Trypanosoma cruzi [2] was found to be 19.8%. In the case of `Cc1cc2c(cc1C)[n+]([O-])c(NC(=O)c1cccs1)c(C#N)[n+]2[O-]`, the inhibition of growth at 25 µM with Trypanosoma cruzi [2] amounted to 13.5%. This molecule also showed an MIC in assay [1] of 1.19 µg/mL (≈ 3.5 µM).

`N#Cc1c(NC(=O)c2ccc([N+](=O)[O-])s2)[n+]([O-])c2cc(C(F)(F)F)ccc2[n+]1[O-]`: inhibition of growth in assay [1] (MIC) required 1.7 µg/mL (≈ 4 µM). Same read-out and setting: as for `N#Cc1c(NC(=O)c2ccc([N+](=O)[O-])o2)[n+]([O-])c2cc(F)c(F)cc2[n+]1[O-]`, the figure is 22.2 µg/mL (≈ 58.7 µM); as for `N#Cc1c(NC(=O)c2cccs2)[n+]([O-])c2ccc(Cl)cc2[n+]1[O-]`, 2.47 µg/mL (≈ 7.12 µM).

By MIC is commonly meant the smallest concentration in the dilution series that meets the test's criterion for growth inhibition.
